According to ChEMBL document CHEMBL1134983, “Core-modified sordaricin derivatives: synthesis and antifungal activity” (2002):
In brackets after ≈: the same amount, converted by molar mass.

Tests used:
Format in all cases: functional
[1] = tested on: Nakaseomyces glabratus; experiment: Anti-fungal activity against Candida glabrata A28790 (WT)
[2] = tested on: Candida albicans; experiment: Anti-fungal activity against Candida albicans A28660 (WT)
[3] = tested on: Candida albicans; experiment: Anti-fungal activity against Candida albicans A28235 (WT)

| SMILES | MIC [1] | MIC [2] | MIC [3] |
| --- | --- | --- | --- |
| CCCCCCOCC12C[C@@H]3[C@H](C)[C@@H](O)C[C@H]3C3(C=O)CC1C=C(C(C)C)[C@@]23C(=O)O | > 128 µg/mL | 64 µg/mL (≈ 148 µM) | 32 µg/mL (≈ 74 µM) |
| CCCCCCOCC12C[C@@]34[C@@H](CC[C@]3(C)C4(Cl)Cl)C3(C=O)CC1C=C(C(C)C)[C@@]23C(=O)O | 64 µg/mL (≈ 129 µM) | 32 µg/mL (≈ 64.3 µM) | 32 µg/mL (≈ 64.3 µM) |
| CCCCCCOCC12C[C@@H]3[C@H](C)C(=O)C[C@H]3C3(C=O)CC1C=C(C(C)C)[C@@]23C(=O)O | 32 µg/mL (≈ 74.3 µM) | 8 µg/mL (≈ 18.6 µM) | 4 µg/mL (≈ 9.29 µM) |
| CCCCCCOCC12C[C@H]3[C@@H](CC[C@]3(C)O)C3(C=O)CC1C=C(C(C)C)[C@@]23C(=O)O | 32 µg/mL (≈ 74 µM) | 8 µg/mL (≈ 18.5 µM) | 4 µg/mL (≈ 9.25 µM) |
| COC1C(O)[C@H](O)[C@H](OC[C@@]23C[C@@H]4[C@H](C)CC[C@H]4[C@@]4(C=O)CC2C=C(C(C)C)[C@@]34C(=O)O)O[C@@H]1C (single isomer, unassigned) [SORDARIN] | > 128 µg/mL |  | 16 µg/mL (≈ 32.5 µM) |

Compounds with a lower MIC [1], results first:

| MIC [1] | MIC [2] | MIC [3] | SMILES |
| --- | --- | --- | --- |
| 0.125 µg/mL (≈ 0.3 µM) | 0.06 µg/mL (≈ 0.144 µM) | 0.06 µg/mL (≈ 0.144 µM) | CCCCCCOCC12C[C@@H]3[C@H](C)CC[C@H]3C3(C=O)CC1C=C(C(C)C)[C@@]23C(=O)O |
| 8 µg/mL (≈ 19.3 µM) | 0.5 µg/mL (≈ 1.21 µM) | 0.125 µg/mL (≈ 0.302 µM) | CCCCCCOCC12CC3=C(C)CC[C@H]3C3(C=O)CC1C=C(C(C)C)[C@@]23C(=O)O |
| 1 µg/mL (≈ 2.3 µM) | 0.5 µg/mL (≈ 1.15 µM) | 0.25 µg/mL (≈ 0.575 µM) | CCCCCCOCC12C[C@@H]3[C@H](C)[C@H](F)C[C@H]3C3(C=O)CC1C=C(C(C)C)[C@@]23C(=O)O |
